Active and inactive are the calls of the source. No cut-off for these calls is given here.
Key:
[1] = system: Mus musculus; assay: Antithrombotic activity in mouse assessed as protection against collagen-epinephrine-induced pulmonary thromboembolism at 30 uM/kg, po administered 60 mins prior to thrombotic challenge; type: functional
[2] = Antiplatelet activity in human platelet-rich plasma assessed as inhibition of collagen-induced platelet aggregation treated for 5 mins prior to collagen challenge for 5 mins by turbidimetric method; type: functional, cell-free
[3] = Antiplatelet activity in human platelet-rich plasma assessed as inhibition of collagen-induced platelet aggregation at 10 uM treated for 5 mins prior to collagen challenge for 5 mins by turbidimetric method; type: functional
[4] = system: Mus musculus; assay: Prolongation of bleeding time in mouse at 30 uM/kg, po administered as single dose by tail excision method; type: ADME, organism-based; conditions: in vivo
[5] = Antiplatelet activity in human platelet-rich plasma assessed as inhibition of collagen-induced platelet aggregation at 30 uM treated for 5 mins prior to collagen challenge for 5 mins by turbidimetric method; type: functional
[6] = system: Platelet; assay: Antiplatelet activity in human platelet-rich plasma assessed as inhibition of ADP-induced platelet aggregation treated for 5 mins prior to ADP challenge for 5 mins by turbidimetric method; type: functional, cell-free
[7] = system: Platelet; assay: Antiplatelet activity in human platelet-rich plasma assessed as inhibition of TRAP-induced platelet aggregation treated for 5 mins prior to TRAP challenge for 5 mins by turbidimetric method; type: functional, cell-free
[8] = Antiplatelet activity in human platelet-rich plasma assessed as inhibition of U46619-induced platelet aggregation treated for 5 mins prior to U46619 challenge for 5 mins by turbidimetric method; type: functional, cell-free
[9] = system: Platelet; assay: Antiplatelet activity in human platelet-rich plasma assessed as inhibition of ristocetin-induced platelet aggregation treated for 5 mins prior to ristocetin challenge for 5 mins by turbidimetric method; type: functional, cell-free
[10] = Antiplatelet activity in human platelet-rich plasma assessed as inhibition of arachidonic acid-induced platelet aggregation treated for 5 mins prior to arachidonic acid challenge for 5 mins by turbidimetric method; type: functional, cell-free

SMILES	Activity [1] [%]	inhibition at 10 µM [3] [%]	other results
Cc1ccc(CN2C(=O)COC(C)[C@H]2C(=O)N2CCC[C@@H](CNC(=O)OC(C)(C)C)C2)cc1 (stereo partly drawn)	20	–	–
O=C([C@@H]1CCC(=O)N1Cc1ccccc1)N1CCN(c2ccccc2Cl)CC1	40	–	inhibition (INH) [2]: 74%
COc1ccccc1CN1C(=O)CC[C@H]1C(=O)N1CCC[C@H](CNC(=O)OC(C)(C)C)C1	50	22	–
CC(C)(C)C(=O)NCC1CCCN(C(=O)[C@@H]2CCC(=O)N2Cc2ccccc2)C1 (mixture of isomers)	50	–	Activity [4]: 41%; inhibition at 30 µM [5]: 2.4%
CC(C)(C)OC(=O)NC[C@@H]1CCCN(C(=O)[C@@H]2CCC(=O)N2Cc2ccc3ccccc3c2)C1	30	29	–
CC(C)(C)OC(=O)NC[C@@H]1CCCN(C(=O)[C@@H]2CCC(=O)N2Cc2ccc(C#N)cc2)C1	60	8	–
COc1cccc(CN2C(=O)CC[C@H]2C(=O)N2CCC[C@@H](CNC(=O)OC(C)(C)C)C2)c1	–	34	–
CC1OCC(=O)N(Cc2ccccc2)[C@@H]1C(=O)N1CCC[C@@H](CNC(=O)OC(C)(C)C)C1 (stereo partly drawn)	20	–	–
CC(C)(C)OC(=O)NC[C@H]1CCCN(C(=O)[C@@H]2CCC(=O)N2Cc2ccccc2Br)C1	50	6	–
Cc1cccc(CN2C(=O)CC[C@H]2C(=O)N2CCC[C@H](CNC(=O)OC(C)(C)C)C2)c1	70	13	–
Cc1ccc(CN2C(=O)OC[C@H]2C(=O)N2CCC[C@@H](CNC(=O)OC(C)(C)C)C2)cc1	30	–	Activity [4]: 54%
CC(C)(C)OC(=O)NC[C@H]1CCCN(C(=O)[C@@H]2CCC(=O)N2Cc2ccc(C#N)cc2)C1	10	25	–
O=C([C@@H]1CCC(=O)N1Cc1ccccc1)N1CCN(c2ccccc2F)CC1	50	–	inhibition (INH) [2]: 57%
Cc1ccc(C(=O)N2CSC[C@H]2C(=O)N2CCC[C@@H](CNC(=O)OC(C)(C)C)C2)cc1	10	–	Activity [4]: 8%
CC(C)(C)OC(=O)NCC1CCN(C(=O)[C@@H]2CCC(=O)N2Cc2ccc(C#N)cc2)CC1	40	–	Activity [4]: 0%; inhibition at 30 µM [5]: 34%
CC(C)(C)OC(=O)NC[C@H]1CCCN(C(=O)[C@@H]2CCC(=O)N2Cc2ccc(Cl)cc2)C1	15	21	–
CC(C)(C)OC(=O)NCC1CCN(C(=O)[C@@H]2CCC(=O)N2Cc2c(Cl)cccc2Cl)CC1	70	–	Activity [4]: 50%; inhibition at 30 µM [5]: 80%
Cc1ccc(CN2C(=O)CSC[C@H]2C(=O)N2CCCC(CNC(=O)OC(C)(C)C)C2)cc1 (single isomer, unassigned)	30	18	–
CC(C)(C)OC(=O)NC[C@H]1CCCN(C(=O)[C@@H]2CCC(=O)N2Cc2cccc(C#N)c2)C1	20	19	–
COc1cccc(CN2C(=O)CC[C@H]2C(=O)N2CCC[C@H](CNC(=O)OC(C)(C)C)C2)c1	22.3	6	–
Cc1ccc(CN2C(=O)CC[C@H]2C(=O)N2CCC[C@@H](CNC(=O)[C@@H](NC(=O)OCc3ccccc3)C(C)C)C2)cc1	10	–	–
Cc1ccc(CN2C(=O)COC(C)[C@H]2C(=O)N2CCC[C@H](CNC(=O)OC(C)(C)C)C2)cc1 (stereo partly drawn)	30	–	–
Cc1ccc(CN2C(=O)CC[C@H]2C(=O)N2CCC[C@@H](CNC(=O)c3ccc(C)cc3)C2)cc1	30	–	–
CC(C)(C)OC(=O)NC[C@@H]1CCCN(C(=O)[C@@H]2CCC(=O)N2Cc2c(Cl)cccc2Cl)C1	20	24	–
Cc1ccc(CN2C(=O)CC[C@H]2C(=O)N2CCC[C@@H](CNC(=O)[C@H](Cc3ccccc3)NC(=O)OCc3ccccc3)C2)cc1	30	–	–
CC(C)(C)OC(=O)NCC1CCCN(C(=O)[C@@H]2CCC(=O)N2C/C=C/c2ccccc2)C1 (mixture of isomers)	30	–	Activity [4]: 0%; inhibition at 30 µM [5]: 42%
CC(C)(C)OC(=O)NC[C@@H]1CCCN(C(=O)[C@@H]2CCC(=O)N2Cc2ccc(Br)cc2)C1	40	20	–
COc1ccccc1CN1C(=O)CC[C@H]1C(=O)N1CCC[C@@H](CNC(=O)OC(C)(C)C)C1	40	32	–

SMILES	Activity [1] [%]	inhibition at 10 µM [3] [%]	other results
CC(C)(C)OC(=O)NCC1CCCN(C(=O)[C@@H]2CCC(=O)N2Cc2ccccc2Cl)C1 (mixture of isomers)	70	–	Activity [4]: 60%; inhibition at 30 µM [5]: 15%
COc1ccc(CN2C(=O)CC[C@H]2C(=O)N2CCC[C@H](CNC(=O)OC(C)(C)C)C2)cc1	20	25	–
O=C(NCC1CCN(C(=O)[C@@H]2CCC(=O)N2Cc2ccc(Br)cc2)CC1)OCc1ccccc1	70	–	Activity [4]: 25%; inhibition at 30 µM [5]: 11%
CC(C)(C)OC(=O)NC[C@H]1CCCN(C(=O)[C@@H]2CCC(=O)N2Cc2ccc3ccccc3c2)C1	22.3	22	–
CC(C)(C)OC(=O)NC[C@@H]1CCCN(C(=O)[C@@H]2CCC(=O)N2Cc2ccccc2)C1	20	26	–
Cc1ccc(CN2C(=O)OC[C@H]2C(=O)N2CCC[C@H](CNC(=O)OC(C)(C)C)C2)cc1	20	–	Activity [4]: 10%
CC(C)(C)OC(=O)NCC1CCCN(C(=O)[C@@H]2CCC(=O)N2Cc2ccc(Br)cc2)C1 (mixture of isomers)	67	–	Activity [4]: 60%; inhibition at 30 µM [5]: 66.4%
Cc1ccc(S(=O)(=O)NCC2CCCN(C(=O)[C@@H]3CCC(=O)N3Cc3ccccc3)C2)cc1 (mixture of isomers)	25	–	Activity [4]: 0%; inhibition at 30 µM [5]: 72%
CC(C)(C)OC(=O)NC[C@@H]1CCCN(C(=O)[C@@H]2CCC(=O)N2Cc2ccc(Cl)cc2)C1	50	35	–
Cc1ccc(CN2C(=O)CCC[C@H]2C(=O)N2CCC[C@@H](CNC(=O)OC(C)(C)C)C2)cc1	40	18	–
Cc1cccc(CN2C(=O)CC[C@H]2C(=O)N2CCC[C@@H](CNC(=O)OC(C)(C)C)C2)c1	30	28	–
CC(C)(C)OC(=O)NC[C@H]1CCCN(C(=O)[C@@H]2CCC(=O)N2Cc2ccccc2)C1	50	17	–
CC(C)(C)OC(=O)NC[C@@H]1CCCN(C(=O)[C@@H]2CCC(=O)N2Cc2cccc(C#N)c2)C1	30	6	–
CC(C)(C)OC(=O)NC[C@H]1CCCN(C(=O)[C@@H]2CCC(=O)N2Cc2ccc(Cl)c(Cl)c2)C1	30	24	–
CC1OCC(=O)N(Cc2ccccc2)[C@@H]1C(=O)N1CCC[C@H](CNC(=O)OC(C)(C)C)C1 (stereo partly drawn)	20	–	–
CC(C)(C)OC(=O)NC[C@@H]1CCCN(C(=O)[C@@H]2CCC(=O)N2Cc2ccccc2Br)C1	50	27	–
Cc1ccc(CN2C(=O)CCC[C@H]2C(=O)N2CCC[C@H](CNC(=O)OC(C)(C)C)C2)cc1	50	22	–
COc1ccc(CN2C(=O)CC[C@H]2C(=O)N2CCC[C@@H](CNC(=O)OC(C)(C)C)C2)cc1	20	7	–
Cc1ccc(CN2C(=O)CSCC2C(=O)N2CCC[C@@H](CNC(=O)OC(C)(C)C)C2)cc1 (single isomer, unassigned)	30	15	–
CC(C)(C)OC(=O)NC[C@H]1CCCN(C(=O)[C@@H]2CCC(=O)N2Cc2ccc(Br)cc2)C1	50	4	–
Cc1ccc(CN2C(=O)CC[C@H]2C(=O)N2CCC[C@@H](CNC(=O)[C@H](CC(C)C)NC(=O)OCc3ccccc3)C2)cc1	30	–	–
O=C(CNC(=O)OCc1ccccc1)NCC1CCCN(C(=O)[C@@H]2CCC(=O)N2Cc2ccccc2)C1 (mixture of isomers)	40	–	Activity [4]: 13%; inhibition at 30 µM [5]: 12%
CC(C)(C)OC(=O)NC[C@H]1CCCN(C(=O)[C@@H]2CCC(=O)N2Cc2c(Cl)cccc2Cl)C1	10	22	–
Cc1ccc(C(=O)N2CSC[C@H]2C(=O)N2CCC[C@H](CNC(=O)OC(C)(C)C)C2)cc1	40	–	Activity [4]: 50%
Cc1ccc(CN2CSC[C@H]2C(=O)N2CCC[C@H](CNC(=O)OC(C)(C)C)C2)cc1	60	–	Activity [4]: 72%; inhibition [6]: inactive; inhibition (INH) [2]: 87%; IC50 ([2]; Homo sapiens, Platelet, Plasma): 3.3 µM; inhibition [7]: inactive; inhibition (INH) [8]: 100%; IC50 ([8]; Homo sapiens, Platelet, Plasma): 2.7 µM; inhibition [9]: inactive; inhibition (INH) [10]: 93%; IC50 ([10]; Homo sapiens, Platelet, Plasma): 6 µM
CC(C)(C)OC(=O)NC[C@@H]1CCCN(C(=O)[C@@H]2CCC(=O)N2Cc2ccc(Cl)c(Cl)c2)C1	20	27	–
Cc1ccc(CN2C(=O)CC[C@H]2C(=O)N2CCC[C@@H](CNS(=O)(=O)c3ccc(C)cc3)C2)cc1	40	–	–
